± gives the expanded uncertainty stated by the source.
How the values were obtained:
[1] = mn = molality of the nth substance listed, in mol/kg; conditions: 101 kPa, Liquid; for viscosity: Capillary tube (Ostwald / Ubbelohde) method; for mass density: Vibrating tube method
[2] = 101 kPa, Liquid; for viscosity: Capillary tube (Ostwald / Ubbelohde) method; for mass density: Vibrating tube method

CO [methanol] + Cc1ncc(CO)c(CO)c1O.Cl
[1], m2 = 0
Conditions	mass density [kg/m3]	viscosity [mPa·s]
298.15 K	786.67 ± 1	0.543 ± 0.011
308.15 K	777.18 ± 1	0.4708 ± 0.0099
318.15 K	767.75 ± 1	0.4194 ± 0.0088

Cc1ncc(CO)c(CO)c1O.Cl [5-hydroxy-6-methyl-3,4-pyridinedimethanol hydrochloride] + CO
[1]
Conditions	mass density, 298.15 K [kg/m3]	mass density, 308.15 K [kg/m3]	mass density, 318.15 K [kg/m3]	viscosity, 298.15 K [mPa·s]	viscosity, 308.15 K [mPa·s]	viscosity, 318.15 K [mPa·s]
m1 = 0.0127	789.07 ± 1	778.65 ± 1	769.25 ± 1	0.5562 ± 0.012	0.4853 ± 0.01	0.4275 ± 0.009
m1 = 0.0254	789.94 ± 1	779.85 ± 1	770.18 ± 1	0.5621 ± 0.012	0.4955 ± 0.01	0.4468 ± 0.0094
m1 = 0.0382	790.86 ± 1	780.83 ± 1	771.13 ± 1	0.5712 ± 0.012	0.5034 ± 0.011	0.464 ± 0.0098

CO [methanol]
[2]
Conditions	mass density [kg/m3]	viscosity [mPa·s]
298.15 K	786.67 ± 1	0.543 ± 0.011
308.15 K	777.18 ± 1	0.4708 ± 0.0099
318.15 K	767.75 ± 1	0.4194 ± 0.0088

Reference: the NIST ThermoML archive (doi:10.1016/j.jct.2014.02.022)
